Reference: US6603046B1, “Bis-aromatic a,β-unsaturated ketones” (Lica Pharmaceuticals A/S, priority 1992, dated 2003)
Converted amounts (≈) assume the structure as drawn. Where two headings read alike, the source gives them in different places.

How the values were obtained:
M. bovis = type: cell-based; settings: n = 8
[1] = Plasma concentration and half live in mice after i.p. injection, HPLC (Example 25); type: in vivo
Description: Serum or plasma was diluted with one part of acetonitrile, left for 15 min at 4° C., and centrifugated for 3 min at 10,000 g. An aliquot of the supernatant was chromatographed at 37° C. by HPLC over Spherisorb ODS-2 (5 μm, 120×4.5 mm, Phase Separation LTD, UK) using acetonitrile aqueous acetic acid, 2%, (1:1) as an eluent, flow rate 1.5 ml/min, and UV detection (370 nm and 254 nm).
Standards. Standards containing 14.68 μg/ml, 4.90 μg/ml, and 0.45 μg/ml plasma were freshly prepared every day. The standards were wrapped in tinfoil to avoid light catalyzed isomerization.
A solution of 2,4dimethylnitrobenzene (0.20 μl/ml) was used as an internal standard.
Licochalcone A (10 mg/kg mouse≈200 μg/mouse) was injected i.p. into mice. The mice were sacrificed and bleeded after 15, 30, 60, 120, 240 and 480 min. The plasma was obtained by centrifugation. 100 μl of plasma was added to 100 μl of the solution of the internal standard and the mixture left for 30 min. The mixture was centrifuged for 5 min at 10,000 g and 20 μl of the clear supernatant was analyzed by HPLC (Example 23).

M. tuberculosis = assay: Radiometric MIC/MBC (Example 19); type: cell-based
Description: 63 strains of mycobacteria were used in this study. The bacteria were grown in Dubos broth media before susceptibility testing. Licochalcone A was isolated as described in Example 1. Licochalcone A was dissolved in dimethyl sulfoxide (DMSO) and diluted in distilled water to the desired concentration.
Susceptibility testing was performed radiometrically by using a BECTEC 460-TB apparatus (Becton Dickinson) in a confined atmosphere (5% CO2). […] The growth was expressed as a numerical value called the growth index (GI) which ranged from 1 to 999. The 7H12 vials were inoculated with 0.1 ml of an appropriately diluted Dubos broth culture to give a final inoculum of about 5×10^4 colony-forming units (CFU) per ml together with 0.1 ml of different concentrations of licochalcone A. The final concentrations of licochalcone A tested ranged from 1.25 μg/ml to 80 μg/ml. A vial without licochalcone A, but with an inoculum diluted 1:100, was included as a control. The final inoculum was determinate by culturing 0.1 ml from the control vial onto one Lowenstein-Jensen slant. The vials were incubated under stationary conditions at 35° C. and growth was monitored by daily GI determination for 7 days. At day 7, 0.1 ml from each vial with a GI reading <30 was cultured onto one Lowenstein-Jensen slant. Colony counts were enumerated after incubation at 35° C. for 3 weeks.

[2] = tested on: chloroquine resistant P. falciparum DD2 strain; assay: In vitro growth of P. falciparum DD2, 3H-hypoxanthine uptake (Example 15); type: cell-based, Plasmodium falciparum; settings: for Growth in % of control (mean ± SEM): title: percentage inhibition of 3H-hypoxanthine uptake
P. falciparum = P. falciparum growth in vitro (Table 14.1, strain not stated); type: cell-based; settings: Plasmodium falciparum, read-out: inhibition of malaria parasites (middle figure) (converted)
Procedure, shortened: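 Parasitized erythrocytes (~1% parasitemia) in RPMI with graded compound concentrations, cultured 48 h. 3H-hypoxanthine added for the final 24 h. Growth measured as 3H-hypoxanthine incorporation into parasite DNA by liquid scintillation.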

M. intracellular = assay: Radiometric MIC (Example 19); type: cell-based; settings: n=9
[3] = Toxicity study in mice, i.v. and oral (Example 21); type: in vivo, NMRI female mice
Description: Drug. Licochalcone A solution was prepared as follows: 20 mg of licochalcone A was dissolved in 0.2 ml of ethanol. 60 mg of melted polyoxyethylene (23)lauryletherb (Brij 35) was added. 1.7 ml of phosphate buffer was then added while stirring on a warm plate. pH in the licochalcone A solution was adjusted to 7.3.
Mice. NMRI female mice (30-35 gram) in groups of 4 each were used for these studies. For the oral route experiment, the animals were fasted for 16 hrs with access to drinking water. Licochalcone A was suspended in 2% carboxymethylcellulose in water. This suspension was available for the mice in an amount of 0.1 ml per 10 gram body weight. The animals were observed every day for 7 days. For the intravenous injection experiment the animals were not fasted. Licochalcone A in solution (20 mg/ml) prepared as mentioned above was injected intravenously 0.1 ml per 10 gram body weight over a period of one hour and again 24 hrs later.

L. major promastigotes = assay: In vitro growth of L. major promastigotes, 3H-thymidine uptake (Example 4); type: cell-based, Leishmania major; settings: Leishmania major; for IC50: read-out: concentration for 50% inhibition; for inhibition at 1 µg/mL: 1 μg/ml; for inhibition at 2 µg/mL: 2 μg/ml; for inhibition at 5 µg/mL: 5 μg/ml; for inhibition at 10 µg/mL: 10 μg/ml; for inhibition at 20 µg/mL: 20 μg/ml
[4] = read-out: percentage inhibition of 3H-thymidine uptake (mean ± SEM), 3-day culture
[5] = read-out: percentage inhibition of 3H-thymidine uptake (mean ± SEM), 6-day culture

Question: For `C=CC(C)(C)c1cc(/C=C/C(=O)c2ccc(O)cc2)c(OC)cc1O` [Licochalcone A, licochalcone A], which meanMIC (M. bovis) is on record?
Answer: The meanMIC was “meanMIC = 15.7 μg/ml”.

Question: What about the rangeMIC (M. bovis) of the same compound?
Answer: The rangeMIC was “rangeMIC = 10-20 μg/ml (n = 8)”.

Question: And the plasma concentration ([1]; 10 mg/kg i.p., after 120 min)?
Answer: Its plasma concentration is “below det. limit”.

Question: And the plasma concentration ([1]; 10 mg/kg i.p., after 240 min)?
Answer: The plasma concentration was “below det. limit”.

Question: And the plasma concentration ([1]; 10 mg/kg i.p., after 480 min)?
Answer: Its plasma concentration is “below det. limit”.

Question: What about the “metabolites in mouse plasma” value ([1]; HPLC) of the same compound?
Answer: The value was “Three metabolites have been detected”.

Question: And the concentration at 15 min ([1]; mouse, plasma, intraperitoneal, 10 mg/kg i.p., after 15 min)?
Answer: Its concentration at 15 min is 1330 ng/mL.

Question: And the concentration at 30 min ([1]; mouse, plasma, intraperitoneal, 10 mg/kg i.p., after 30 min)?
Answer: The concentration at 30 min was 280 ng/mL.

Question: And the concentration at 60 min ([1]; mouse, plasma, intraperitoneal, 10 mg/kg i.p., after 60 min)?
Answer: The concentration at 60 min was 140 ng/mL.

Question: And the “meanMIC (second line)” value (M. tuberculosis; n = 2)?
Answer: Its value is “meanMIC = 40 μg/ml (n = 2)”.

Question: What about the meanMIC (M. tuberculosis; n = 19) of the same compound?
Answer: Its meanMIC is “meanMIC = 7.1 μg/ml”.

Question: And the rangeMIC (M. tuberculosis; n = 19)?
Answer: The rangeMIC was “rangeMIC = 5-10 μg/ml (n = 19)”.

Question: What about the IC50 ([2]; Plasmodium falciparum, DD2, read-out: concentration in which parasite growth was retarded by 50%) of the same compound?
Answer: The IC50 was 0.5 to 1 µg/mL (≈ 1.48 to 2.96 µM).

Question: And the “Growth in % of control (mean ± SEM)” value ([2]; 0.1 μg/ml)?
Answer: Its value is 5.0 ± 2.0%.

Question: What about the “Growth in % of control (mean ± SEM)” value ([2]; 0.5 μg/ml) of the same compound?
Answer: The value was 41.0 ± 4.0%.

Question: And the “Growth in % of control (mean ± SEM)” value ([2]; 1 μg/ml)?
Answer: The value was 66.0 ± 3.0%.

Question: And the “Growth in % of control (mean ± SEM)” value ([2]; 5 μg/ml)?
Answer: Its value is 98.0 ± 1.0%.

Question: What about the “Growth in % of control (mean ± SEM)” value ([2]; 10 μg/ml) of the same compound?
Answer: The value was 99.0 ± 0.0001%.

Question: What about the inhibition at 0.5 µg/mL (P. falciparum; 0.5 μg/ml) of the same compound?
Answer: The inhibition at 0.5 µg/mL was 39%.

Question: And the inhibition at 1 µg/mL (P. falciparum; 1 μg/ml)?
Answer: The inhibition at 1 µg/mL was 69%.

Question: What about the inhibition at 5 µg/mL (P. falciparum; 5 μg/ml) of the same compound?
Answer: The inhibition at 5 µg/mL was 98%.

Question: What about the inhibition at 10 µg/mL (P. falciparum; 10 μg/ml) of the same compound?
Answer: The inhibition at 10 µg/mL was 98%.

Question: What about the meanMIC (M. intracellular) of the same compound?
Answer: The meanMIC was 50.0 µg/mL.

Question: And the rangeMIC (M. intracellular)?
Answer: Its rangeMIC is 20 to 80 µg/mL.

Question: What about the “No. dead (after 7 days)” value ([3]; 1000 mg/kg perorally, groups of 4) of the same compound?
Answer: The value was 0 (after 7 days).

Question: And the “No. dead (after 1 hr)” value ([3]; i.v. 20 mg/kg, groups of 4)?
Answer: Its value is 0.

Question: And the “No. dead (after 1 hr)” value ([3]; i.v. 50 mg/kg, groups of 4)?
Answer: The value was 1.

Question: And the “No. dead (after 1 hr)” value ([3]; i.v. 60 mg/kg, groups of 4)?
Answer: Its value is 4.

Question: What about the “No. dead (after 1 hr)” value ([3]; i.v. 100 mg/kg, groups of 4) of the same compound?
Answer: Its value is 4.

Question: What about the “Approximate LD50 i.v.” value ([3]; mice) of the same compound?
Answer: Its value is about 55 mg per kg body weight.

Question: And the IC50 (L. major promastigotes; log phase promastigotes)?
Answer: Its IC50 is 2 to 5 µg/mL (≈ 5.91 to 14.8 µM).

Question: And the inhibition at 1 µg/mL (L. major promastigotes; [4])?
Answer: The inhibition at 1 µg/mL was 3.6 ± 11.5%.

Question: And the inhibition at 2 µg/mL (L. major promastigotes; [4])?
Answer: The inhibition at 2 µg/mL was 14.8 ± 21.5%.

Question: And the inhibition at 5 µg/mL (L. major promastigotes; [4])?
Answer: Its inhibition at 5 µg/mL is 63.9 ± 13%.

Question: And the inhibition at 10 µg/mL (L. major promastigotes; [4])?
Answer: The inhibition at 10 µg/mL was 91.9 ± 8.4%.

Question: What about the inhibition at 20 µg/mL (L. major promastigotes; [4]) of the same compound?
Answer: The inhibition at 20 µg/mL was 96 ± 7.5%.

Question: And the inhibition at 1 µg/mL (L. major promastigotes; [5])?
Answer: The inhibition at 1 µg/mL was 15.8 ± 16.5%.

Question: And the inhibition at 2 µg/mL (L. major promastigotes; [5])?
Answer: Its inhibition at 2 µg/mL is 42.6 ± 19.7%.

Question: What about the inhibition at 5 µg/mL (L. major promastigotes; [5]) of the same compound?
Answer: The inhibition at 5 µg/mL was 80.7 ± 6.4%.

Question: What about the inhibition at 10 µg/mL (L. major promastigotes; [5]) of the same compound?
Answer: Its inhibition at 10 µg/mL is 96.4 ± 1.2%.

Question: And the inhibition at 20 µg/mL (L. major promastigotes; [5])?
Answer: The inhibition at 20 µg/mL was 99.4 ± 1.1%.

Question: What about the IC50 (L. major promastigotes; stationary phase promastigotes) of the same compound?
Answer: The IC50 was about 2 µg/mL (≈ 5.91 µM).
